Laboratory results reported in patent US9018208B2, “Heterocycles as potassium channel modulators” (Icagen Inc., priority 2007, dated 2015).

system: SH-SY5Y M-currents (KCNQ2, KCNQ3 and KCNQ5); experiment: SH-SY5Y native cell line FLIPR assay (voltage-sensitive dye DiBAC); type: cell-based, mouse neuroblastoma, rat glioma hybrid cell line; settings: FLIPR assay, SH-SY5Y native cell line; Table 2; read-out: SH-SY5Y EC50
Procedure, shortened: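 Response is peak DiBAC fluorescence change, normalised to the maximum from a positive control agent, sampled every 30 s over 25 min. Before compound addition, SH-SY5Y cells differentiated with PGE1 plus isomethylbutylxanthine were dye-loaded for 1 h in EBSS with […] DiBAC.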

`O=C(Cc1ccc(F)cc1)Nc1nc2ccccn2c1-c1ccc(C(F)(F)F)cc1` [Compound 204, 2-(4-fluorophenyl)-N-(3-(4-(trifluoromethyl)phenyl)imidazo[1,2-a]pyridin-2-yl)acetamide] and `O=C(Cc1ccc(F)cc1)Nc1nc2ccccn2c1-c1ccc(OC(F)(F)F)cc1` [Compound 205, 2-(4-fluorophenyl)-N-(3-(4-(trifluoromethoxy)phenyl)imidazo[1,2-a]pyridin-2-yl)acetamide] cannot be ordered by EC50: < 500 nM for the first, < 500 nM for the second.

`CC(C)(C)OCC(=O)Nc1nc2ccc(F)cn2c1-c1ccc(C(F)(F)F)cc1` [Compound 206, 2-tert-butoxy-N-(6-fluoro-3-(4-(trifluoromethyl)phenyl)imidazo[1,2-a]pyridin-2-yl)acetamide] and `CC(C)(C)OCC(=O)Nc1nc2ccc(F)cn2c1-c1ccc(OC(F)(F)F)cc1` [Compound 208, 2-tert-butoxy-N-(6-fluoro-3-(4-(trifluoromethoxy)phenyl)imidazo[1,2-a]pyridin-2-yl)acetamide] fall in the same range of EC50: 3000 to 10000 nM for the first, 3000 to 10000 nM for the second.

Compared with `O=C(Cc1ccccc1)Nc1nc2ccc(F)cn2c1-c1ccc(OC(F)(F)F)cc1` [Compound 207, N-(6-fluoro-3-(4-(trifluoromethoxy)phenyl)imidazo[1,2-a]pyridin-2-yl)-2-phenylacetamide], `O=C(Cc1ccc(F)cc1)Nc1nc2cc(Cl)c(Cl)cn2c1-c1ccc(OC(F)(F)F)cc1` [Compound 217, N-(6,7-dichloro-3-(4-(trifluoromethoxy)phenyl)imidazo[1,2-a]pyridin-2-yl)-2-(4-fluorophenyl)acetamide] is higher in EC50: < 500 nM for the first, 500 to 3000 nM for the second. The first is the more potent here.

`CC(CC(=O)Nc1nc2ccc(F)cn2c1-c1ccc(F)c(F)c1)C(F)(F)F` (stereo not shown) [Compound 209, N-(3-(3,4-difluorophenyl)-6-fluoroimidazo[1,2-a]pyridin-2-yl)-4,4,4-trifluoro-3-methylbutanamide] and `CC(C)(C)CC(=O)Nc1nc2ccc(F)cn2c1-c1ccc(F)c(F)c1` [Compound 212, N-(3-(3,4-difluorophenyl)-6-fluoroimidazo[1,2-a]pyridin-2-yl)-3,3-dimethylbutanamide] cannot be ordered by EC50: < 500 nM for the first, < 500 nM for the second.

`O=C(Cc1ccc(F)cc1)Nc1nc2ccc(F)cn2c1-c1ccc(F)c(F)c1` [Compound 210, N-(3-(3,4-difluorophenyl)-6-fluoroimidazo[1,2-a]pyridin-2-yl)-2-(4-fluorophenyl)acetamide] and `O=C(Cc1ccccc1)Nc1nc2ccc(F)cn2c1-c1ccc(F)c(F)c1` [Compound 211, N-(3-(3,4-difluorophenyl)-6-fluoroimidazo[1,2-a]pyridin-2-yl)-2-phenylacetamide] cannot be ordered by EC50: < 500 nM for the first, < 500 nM for the second.

First: O=C(NCCc1ccc(F)cc1)Nc1nc2ccc(F)cn2c1-c1ccc(C(F)(F)F)cc1 [Compound 213, 1-(6-fluoro-3-(4-(trifluoromethyl)phenyl)imidazo[1,2-a]pyridin-2-yl)-3-(4-fluorophenethyl)urea]
Second: O=C(NCc1ccc(F)cc1)Nc1nc2ccc(F)cn2c1-c1ccc(C(F)(F)F)cc1 [Compound 214, 1-(6-fluoro-3-(4-(trifluoromethyl)phenyl)imidazo[1,2-a]pyridin-2-yl)-3-(4-fluorobenzyl)urea]
The EC50 of the first is higher: 3000 to 10000 nM for the first, 500 to 3000 nM for the second. The second is the more potent here.

`CC(C)(C)NC(=O)Nc1nc2ccc(F)cn2c1-c1ccc(C(F)(F)F)cc1` [Compound 215, 1-tert-butyl-3-(6-fluoro-3-(4-(trifluoromethyl)phenyl)imidazo[1,2-a]pyridin-2-yl)urea] and `CC(C)(C#N)CC(=O)Nc1nc2ccc(F)cn2c1-c1ccc(OC(F)(F)F)cc1` [Compound 218, 3-cyano-N-(6-fluoro-3-(4-(trifluoromethoxy)phenyl)imidazo[1,2-a]pyridin-2-yl)-3-methylbutanamide] fall in the same range of EC50: 500 to 3000 nM for the first, 500 to 3000 nM for the second.

First: CC(C)(C)CC(=O)Nc1nc2cc(Cl)c(Cl)cn2c1-c1ccc(OC(F)(F)F)cc1 [Compound 216, N-(6,7-dichloro-3-(4-(trifluoromethoxy)phenyl)imidazo[1,2-a]pyridin-2-yl)-3,3-dimethylbutanamide]
Second: CC(CC(=O)Nc1nc2cc(Cl)c(Cl)cn2c1-c1ccc(OC(F)(F)F)cc1)C(F)(F)F (stereo not shown) [Compound 219]
The EC50 of the first is lower: < 500 nM for the first, 500 to 3000 nM for the second. The first is the more potent here.
